From PubChem BioAssay (NCI)
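Method: 48-hour compound exposure of cells in 96-well plates, five concentrations, linear interpolation of endpoints. Definition used: TGI = concentration required for complete inhibition of growth.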

Key:
Assay in all cases: NCI tumour cell line growth inhibition, 48 h
XF 498 CNS = system: XF 498 CNS
LXFL 529 NSCLC = system: LXFL 529 NSCLC
DMS 273 small cell lung = system: DMS 273 small cell lung
SNB-78 CNS = system: SNB-78 CNS
M19-MEL melanoma = system: M19-MEL melanoma
SN12K1 renal = system: SN12K1 renal
RXF-631 renal = system: RXF-631 renal
P388 leukemia = system: P388 leukemia
P388/ADR leukemia = system: P388/ADR leukemia

Structure (SMILES) | TGI (XF 498 CNS) | TGI (LXFL 529 NSCLC) | TGI (DMS 273 small cell lung) | TGI (SNB-78 CNS) | TGI (M19-MEL melanoma) | TGI (SN12K1 renal) | TGI (RXF-631 renal) | TGI (P388 leukemia) | TGI (P388/ADR leukemia)
O=C(c1ccc(Cl)cc1)N(C(=S)N1CCN(c2ccccn2)CC1)C1CCCCC1 | 80.3 µM | > 100 µM | > 100 µM | > 100 µM | > 100 µM |  |  |  | 
NC1=NS(=O)(=O)Nc2nc(-c3ccccc3)[nH]c21 | > 100 µM | > 100 µM | > 100 µM | > 100 µM | > 100 µM |  |  |  | 
C=C(NC(=O)C(=C)NC(=O)c1csc(C2=NC3c4csc(n4)C4NC(=O)c5csc(n5)C(C(C)(O)C(C)O)NC(=O)C5CSC(=N5)/C(=C/C)NC(=O)C(C(C)O)NC(=O)c5csc(n5)C3(CC2)NC(=O)C(C)NC(=O)C(=C)NC(=O)C(C)NC(=O)C(C(C)CC)NC2C=Cc3c(C(C)O)cc(nc3C2O)C(=O)OC4C)n1)C(N)=O (configuration not stated) |  | 1.65 µM | 2.8 µM | > 100 µM | 3.05 µM | 2.57 µM | 18 µM | 0.19 µM | 
C=C1C(=O)O[C@@H]2[C@H](O)[C@@H](C)[C@@H]3C=CC(=O)[C@@]3(C)[C@@H](OC(=O)/C(C)=C/C)[C@H]12 | 0.867 µM |  | 3.56 µM | 8.03 µM | 1.22 µM | 0.688 µM |  | 2.74 µM | 1.08 µM
COc1c2c(c3ccccc3c1O)C1C=CC2C1 (configuration not stated) | 27.9 µM | 14.7 µM | 30.3 µM |  | 5.46 µM |  |  |  | 
COc1ccc([C@@H]2CC(=O)N2)cc1 | > 100 µM | > 100 µM | > 100 µM | > 100 µM |  |  |  |  | 
